In patent US20070123508A1, “PAR2-modulating compounds and their use” (priority 2005, published 2007):

Biological target: T1, human PAR2 (Homo sapiens, UniProt P55085)
T1 construct: expressed in transfected cells; host or cells: NIH3T3 cells, transiently transfected; receptor in pSI-derived mammalian expression vector
T1 sequence (P55085 26-397): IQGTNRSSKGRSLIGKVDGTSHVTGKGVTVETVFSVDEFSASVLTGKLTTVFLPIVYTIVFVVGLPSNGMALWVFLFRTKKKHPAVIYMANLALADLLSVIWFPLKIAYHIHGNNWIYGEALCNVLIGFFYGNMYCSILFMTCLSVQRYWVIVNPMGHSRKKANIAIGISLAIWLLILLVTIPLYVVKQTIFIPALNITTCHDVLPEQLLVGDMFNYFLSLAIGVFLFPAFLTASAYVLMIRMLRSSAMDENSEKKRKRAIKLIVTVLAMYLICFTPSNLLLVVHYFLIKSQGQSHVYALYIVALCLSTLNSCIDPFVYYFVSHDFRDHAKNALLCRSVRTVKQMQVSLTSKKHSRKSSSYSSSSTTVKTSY
Test: Receptor Selection and Amplification Technology (R-SAT) functional receptor assay
Type: cell-based
Details: for EC50: NIH3T3 cells transfected with PAR2, negative log of EC50 (molar); for Emax: percent maximum activation relative to the ligand SLIGRL, read-out: % Efficacy
Protocol: The functional receptor assay, Receptor Selection and Amplification Technology (R-SAT), was used to investigate the pharmacological properties of known and novel PAR2 compounds. R-SAT is disclosed in U.S. Pat. Nos. 5,707,798, 5,912,132, and 5,955,281, all of which are hereby incorporated herein by reference in their entirety, including any drawings.
Briefly, NIH3T3 cells were grown in 96 well tissue culture plates to 70-80% confluence. Cells were transfected for 16-20 h with plasmid DNAs using Polyfect (Qiagen Inc.) using the manufacturer's protocols. R-SATs were generally performed with 4 ng/well of receptor and 20 ng/well of β-galactosidase plasmid DNA. All receptor constructs used were in the pSI-derived mammalian expression vector (Promega Inc). The PAR2 gene was amplified by PCR from genomic DNA using oligodeoxynucleotide primers based on the published sequence (GenBank Accession # Z49993 and Z49994). For large-scale transfections, cells were transfected for 16-20 h, then trypsinized and frozen in DMSO. Frozen cells were later thawed, plated at ˜10,000 cells per well of a 96 half-area well plate that contained drug. With both methods, cells were then grown in a humidified atmosphere with 5% ambient CO2 for five days. Media was then removed from the plates and marker gene activity was measured by the addition of the β-galactosidase substrate o-nitrophenyl β-D-galactopyranoside (ONPG) in PBS with 0.5% NP-40. The resulting colorimetric reaction was measured using a spectrophotometric plate reader (Titertek Inc.) at 420 nm. All data was analyzed using the XLFit (IDBSm) computer program. Efficacy is the percent maximum activation compared to activation by a control compound (SLIGRLm). pEC50 is the negative of the log(EC50), where EC50 is the calculated as a molar concentration (M) that produces 50% maximal activation.
These experiments provide a molecular profile, or fingerprint, for each of these agents at the human PAR2.
Efficacy is relative to the ligand SLIGRL.

SMILES	EC50	Emax
CC(=NNC(=O)C1C(=O)NCC1c1ccccc1)c1cccc(Br)c1 (mixture of isomers) [Compound 3, 2-Oxo-4-phenyl-3-pyrrolidinecarboxylic acid [1-(3-bromo-phenyl)-(E/Z)-ethylidene]-hydrazide]	0.0398 µM	134%
CC(=NNC(=O)C1C(=O)NCC1c1ccccc1)c1cc(Br)cs1 (mixture of isomers) [Compound 6, 2-Oxo-4-phenyl-3-pyrrolidinecarboxylic acid [1-(4-bromo-thiophen-2-yl)-(E/Z)-ethylidene]-hydrazide]	0.398 µM	109%
CC(=NNC(=O)C1C(=O)NCC1c1ccccc1)c1cncc(Br)c1 (mixture of isomers) [Compound 7, 2-Oxo-4-phenyl-3-pyrrolidinecarboxylic acid [1-(5-bromo-pyridine-3-yl)-(E/Z)-ethylidene]-hydrazide]	0.794 µM	106%

The remaining compounds from weak to strong by EC50, led by results:

EC50	Emax	SMILES
1.58 µM	52%	CC(=NNC(=O)C1C(=O)NCC1c1ccccc1)c1cccs1 (mixture of isomers) [Compound 5, 2-Oxo-4-phenyl-3-pyrrolidinecarboxylic acid [1-(thiophen-2-yl)-(E/Z)-ethylidene]-hydrazide]
0.631 µM	87%	CC(=NNC(=O)C1C(=O)NCC1c1ccccc1)c1ccc(Br)s1 (mixture of isomers) [Compound 4, 2-Oxo-4-phenyl-3-pyrrolidinecarboxylic acid [1-(5-bromo-thiophen-2-yl)-(E/Z)-ethylidene]-hydrazide]
